Reference: PubChem BioAssay AID2060508 (Molecular Pharmacology Branch, DTP, NCI, 2025)
“And” between values parts separate entries of the source, which are not always exact repeats. Equal entries are not always repeated.

Test system: 454973-116-R2-J3-PDC spheroids, viability, % test/control
Assay: Anticancer human tumor 454973-116-R2-J3-PDC patient-derived pancreatic carcinoma cell line growth inhibition [GQUAD]
Settings: spheroids with HUVEC and MSC; for viability, T/C: stronger effect = lower value
From the text: DNA G-quadruplex Stabilizer Agents in Combinations in Complex Spheroids
A high-throughput screen of multi-cell type tumor spheroids was designed to identify active combinations of DNA G-quadruplex stabilizer agents and targeted small molecules. Complex spheroids include a stromal component modeled by human endothelial cells (HUVEC) and fibroblasts modeled by human mesenchymal stem cells (MSCs). The concentration ranges selected for each drug and investigational agent were based upon clinically achievable concentrations if the clinical Cmax of the agent was known.
Compounds. The drugs and investigational agents: pidnarulex (CX-5461; NSC782164), APTO-253 (NSC789042), BRACO-19 (NSC847499), peposertib (NSC802822), ceralasertib (NSC780249), elimusertib (NSC800525), camonsertib (NSC841442), AZD-1390 (NSC803789), olaparib (NSC753686), talazoparib (NSC767125), ART-558 (NSC835418), sotorasib (NSC818433), MRTX-1133 (NSC836407), SN-38 (NSC673596), topotecan (NSC609699), etoposide (NSC141540), doxorubicin (NSC123127), gemcitabine (NSC613327), 5-fluorouracil (NSC19893), paclitaxel (NSC125973), vemurafenib (NSC761431), panobinostat (NSC761190), R-306465 (JNJ-16241199; NSC773264), adavosertib (NSC754352), TP-3654 (NSC805149), carboplatin (NSC241240), KSQ-4279 (NSC840948), and staurosporine (NSC755774) were obtained from the National Cancer Institute (NCI) Developmental Therapeutics Program Chemical Repository (34). The FDA-approved anticancer drug set is available from the NCI Developmental Therapeutics Program. […] The stock solutions were prepared in dimethyl sulfoxide (DMSO, Sigma-Aldrich, St. Louis, MO, cat. D2650) at 800-fold the tested concentration and stored at -70 degrees C prior to their use. All drugs and investigational agents were tested over a range starting from a high concentration at or near the clinical Cmax and decreasing in half-log increments. If the clinical Cmax for an agent had not been determined, the highest concentration tested was 10 microM.
2.3 Cell Culture. All cells were maintained in an incubator at 37 degrees C and 5% CO2 with 95% humidity. The PDC lines were cultured according to standard operating procedures established by the NCI PDMR. All PDCs were thawed and cultured in Matrigel-coated flasks prepared with a working solution of 1X Ham's F-12 nutrient mix, without supplementation (Invitrogen, cat. 11765054), 100 U/mL penicillin-streptomycin (Invitrogen, cat. 15140122), and 2.5% Matrigel (Corning Inc., cat. 354248) for the first three passages. The 857933-349-R-J2-PDC line was cultured in 6C/Colon 1B media, which includes advanced DMEM/F-12 (Thermo Fisher Scientific, cat. 12634028), 10 mM HEPES (Thermo Fisher Scientific, cat. 15630080), 1X GlutaMAX supplement (Thermo Fisher Scientific, cat. 35050061), 0.1 mg/mL primocin (InvivoGen, cat. ant-pm-2), 10% defined fetal bovine serum, heat inactivated (HyClone Laboratories Inc., cat. SH30070.03HI), 50% L-WRN conditioned media (ATCC, cat. CRL-3276), 1.25 mM N-Acetyl-L-cysteine (Sigma-Aldrich, cat. A9165), 10 mM nicotinamide (Sigma-Aldrich, cat. N0636), 1X B-27 supplement (Thermo Fisher Scientific, cat. 17504044), 1X N-2 supplement (Thermo Fisher Scientific, cat. 17502048), 10 microM Y-27632 dihydrochloride (Tocris Bioscience, cat. 1254), and 50 ng/mL human EGF recombinant protein (Thermo Fisher Scientific, cat. PHG0311). The 485176-168-R4-J1-PDC line was cultured in Panc media, which includes all 6C/Colon 1B media components plus 100 ng/mL human FGF-10 (Thermo Fisher Scientific, cat. 100-26), 500 nM SB-431542 (Selleckchem, cat. S1067), and gastrin (Tocris, cat. 3006).
[…]
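Also: spheroids exposed to compounds for seven days.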

`CC(=O)O[C@H]1C(=O)[C@@]2(C)[C@H]([C@H](OC(=O)c3ccccc3)[C@]3(O)C[C@H](OC(=O)[C@H](O)[C@@H](NC(=O)c4ccccc4)c4ccccc4)C(C)=C1C3(C)C)[C@]1(OC(C)=O)CO[C@@H]1C[C@@H]2O` + Cc1[nH]c2ccc(F)cc2c1-c1nc2c3cccnc3c3ncccc3c2[nH]1 showed an IC50 (curve of first compound, second compound 0.0316 µM) of less than 31.6 nM, an IC50 (curve of first compound, second compound 0.1 µM) of less than 31.6 nM and an IC50 (curve of first compound, second compound 0.316 µM) of less than 31.6 nM. The IC50 (curve of first compound, second compound 1 µM) was less than 31.6 nM, the IC50 (curve of first compound, second compound 3.16 µM) was less than 31.6 nM and the IC50 (curve of first compound, second compound 10 µM) was less than 31.6 nM. For the same molecule, the viability, T/C (second compound 0.0316 µM, first compound 0.0316 µM) was 15.2%, the viability, T/C (second compound 0.0316 µM, first compound 0.1 µM) was 8.26% and the viability, T/C (second compound 0.0316 µM, first compound 0.316 µM) was 7.28%. It also gave a viability, T/C (second compound 0.0316 µM, first compound 1 µM) of 6.32%, a viability, T/C (second compound 0.0316 µM, first compound 3.16 µM) of 7.13% and a viability, T/C (second compound 0.0316 µM, first compound 10 µM) of 7.83%. It also gave a viability, T/C (second compound 0.1 µM, first compound 0.0316 µM) of 14.5%, a viability, T/C (second compound 0.1 µM, first compound 0.1 µM) of 9.64% and a viability, T/C (second compound 0.1 µM, first compound 0.316 µM) of 7.87%. The viability, T/C (second compound 0.1 µM, first compound 1 µM) was 6.95%, the viability, T/C (second compound 0.1 µM, first compound 3.16 µM) was 7.87% and the viability, T/C (second compound 0.1 µM, first compound 10 µM) was 8.54%. For the same molecule, the viability, T/C (second compound 0.316 µM, first compound 0.0316 µM) was 14.6%, the viability, T/C (second compound 0.316 µM, first compound 0.1 µM) was 9.07% and the viability, T/C (second compound 0.316 µM, first compound 0.316 µM) was 5.61%. It also gave a viability, T/C (second compound 0.316 µM, first compound 1 µM) of 5.86%, a viability, T/C (second compound 0.316 µM, first compound 3.16 µM) of 5.85% and a viability, T/C (second compound 0.316 µM, first compound 10 µM) of 9.29%. For the same molecule, the viability, T/C (second compound 1 µM, first compound 0.0316 µM) was 12.3%, the viability, T/C (second compound 1 µM, first compound 0.1 µM) was 7.44% and the viability, T/C (second compound 1 µM, first compound 0.316 µM) was 6.58%. The viability, T/C (second compound 1 µM, first compound 1 µM) was 5.96%, the viability, T/C (second compound 1 µM, first compound 3.16 µM) was 7.37% and the viability, T/C (second compound 1 µM, first compound 10 µM) was 10.1%. For the same molecule, the viability, T/C (second compound 3.16 µM, first compound 0.0316 µM) was 11.1%, the viability, T/C (second compound 3.16 µM, first compound 0.1 µM) was 8.56% and the viability, T/C (second compound 3.16 µM, first compound 0.316 µM) was 7.65%. The viability, T/C (second compound 3.16 µM, first compound 1 µM) was 6.65%, the viability, T/C (second compound 3.16 µM, first compound 3.16 µM) was 6.16% and the viability, T/C (second compound 3.16 µM, first compound 10 µM) was 9.4%. The viability, T/C (second compound 10 µM, first compound 0.0316 µM) was 12.5%, the viability, T/C (second compound 10 µM, first compound 0.1 µM) was 8.79% and the viability, T/C (second compound 10 µM, first compound 0.316 µM) was 7.16%. For the same molecule, the viability, T/C (second compound 10 µM, first compound 1 µM) was 7.79%, the viability, T/C (second compound 10 µM, first compound 3.16 µM) was 7.84% and the viability, T/C (second compound 10 µM, first compound 10 µM) was 7.93%.
In the case of `CC(C)(O)C1CCC(Nc2ccc3ncc(-c4cccc(C(F)(F)F)c4)n3n2)CC1` (centres undefined), the viability, T/C (compound 0.0316 µM) is reported as 105% and 109% and 106%, the viability, T/C (compound 0.1 µM) is reported as 99.6% and 101% and 93.8% and the viability, T/C (compound 0.316 µM) is reported as 98.4% and 95.2% and 111%. For the same molecule, the viability, T/C (compound 1 µM) was 77.4% and 76.5% and 90.4%, the viability, T/C (compound 3.16 µM) was 30.5% and 26.7% and 22.5% and the viability, T/C (compound 10 µM) was 35% and 28.9% and 29.6%. The IC50 (curve of compound) was 2030 nM and 1880 nM and 2060 nM.
`CC1COCCN1c1cc(C2(O)CC3CCC(C2)O3)c2cnn(-c3ccn[nH]3)c2n1` (centres undefined) was tested, and the viability, T/C (compound 0.0316 µM) was 84.7% and 87.2% and 97.5%, the viability, T/C (compound 0.1 µM) was 58.4% and 59.4% and 64.2% and the viability, T/C (compound 0.316 µM) was 26.5% and 26.1% and 27.2%. The viability, T/C (compound 1 µM) was 18% and 21.5% and 23.2%, the viability, T/C (compound 3.16 µM) was 17.8% and 23.5% and 22.9% and the viability, T/C (compound 10 µM) was 12% and 10.9% and 14.2%. The IC50 (curve of compound) was 135 nM and 139 nM and 157 nM.
In the case of `CN(C)c1ccc(Nc2c3ccc(NC(=O)CCN4CCCC4)cc3nc3cc(NC(=O)CCN4CCCC4)ccc23)cc1`, the viability, T/C (compound 0.0316 µM) is reported as 107% [middle of 12 runs], the viability, T/C (compound 0.1 µM) is reported as 106% [middle of 12 runs] and the viability, T/C (compound 0.316 µM) is reported as 103% [middle of 12 runs]. For the same molecule, the viability, T/C (compound 1 µM) was 98.5% [middle of 12 runs], the viability, T/C (compound 3.16 µM) was 94.8% [middle of 12 runs] and the viability, T/C (compound 10 µM) was 74% [middle of 12 runs]. The IC50 (compound alone, run of 04/22/2024) was greater than 10000 nM.
With `Cn1ncnc1[C@H]1c2n[nH]c(=O)c3cc(F)cc(c23)N[C@@H]1c1ccc(F)cc1` the viability, T/C (compound 0.000999 µM) was 105% and 108% and 102%, the viability, T/C (compound 0.00316 µM) was 95.6% and 90.5% and 93.4% and the viability, T/C (compound 0.00999 µM) was 93.2% and 92.4% and 94.9%. For the same molecule, the viability, T/C (compound 0.0316 µM) was 90.5% and 84.5% and 95%, the viability, T/C (compound 0.0999 µM) was 87.5% and 93.9% and 86.8% and the viability, T/C (compound 0.316 µM) was 82.2% and 77.3% and 78.9%. For the same molecule, the IC50 (curve of compound) was greater than 316 nM.
For `CC(C)n1c(=O)n(C)c2cnc3cc(F)c(-c4ccc(OCCCN5CCCCC5)nc4)cc3c21`, the viability, T/C (compound 0.0316 µM) was 104% and 111% and 96.6%, the viability, T/C (compound 0.1 µM) was 103% and 98.6% and 97.8% and the viability, T/C (compound 0.316 µM) was 97.7% and 102% and 92.9%. The viability, T/C (compound 1 µM) was 101% and 92.8% and 92.4%, the viability, T/C (compound 3.16 µM) was 91.9% and 89.9% and 91.4% and the viability, T/C (compound 10 µM) was 64% and 74.3% and 68.2%. The IC50 (curve of compound) was greater than 10000 nM.
In the case of `Nc1ccn(C2OC(CO)C(O)C2(F)F)c(=O)n1` (centres undefined), the viability, T/C (compound 0.0316 µM) is reported as 19.1% and 19% and 20.8%, the viability, T/C (compound 0.1 µM) is reported as 16.1% and 13.3% and 15.5% and the viability, T/C (compound 0.316 µM) is reported as 15.3% and 17.1% and 18.8%. The viability, T/C (compound 1 µM) was 16.3% and 16.7% and 16.6%, the viability, T/C (compound 3.16 µM) was 17.3% and 14% and 17.2% and the viability, T/C (compound 10 µM) was 16.6% and 13.6% and 14.2%. The IC50 (curve of compound) was less than 31.6 nM.
